Results: patent US20260327240A1, “1,4-CINEOLE DERIVATIVE AND INTERMEDIATE THEREOF, HERBICIDE CONTAINING SAID DERIVATIVE AS ACTIVE INGREDIENT, METHOD FOR USING HERBICIDE, AND METHOD FOR PREPARING AGROCHEMICAL COMPOSITION” (HOKKO CHEMICAL INDUSTRY CO., LTD., priority 2023, published 2026)

Columns and labels:
Format in all cases: in vivo
[1] = test system: Echinochloa crus-galli var. formosensis; experiment: Comparative Example: herbicidal effect test by application during growth period of paddy rice (three-leaf stage); settings: 504 h, 7.5 g per 10 ares, 21 days after application, triplicate, read-out: Weed inhibition rate (%)
Method: As an example, the herbicidal effect on Echinochloa crus-galli var. formosensis at the three-leaf stage was confirmed by the following method, and the results are specifically shown in Table 7 as a comparative example.
(§1) Herbicidal Effect Test by Application During Growth Period of Paddy Rice
Wagner pots with an area of […] were filled with paddy soil, followed by addition of water and incorporation of chemical fertilizer (N:P:K=16:16:16), after which puddling was performed. After that, 30 seeds of Echinochloa crus-galli var. formosensis were sown at a depth of 0 cm to 1 cm. Immediately after sowing, the pots were flooded and a water depth of approximately 3 cm was maintained. Subsequent management was conducted in a glass greenhouse. When Echinochloa crus-galli var. formosensis reached the three-leaf stage, an emulsifiable concentrate prepared according to Formulation Example 5 using the compound shown below was diluted with water, and a specified amount of the diluted solution was applied by dropper. The amount of the active ingredient to be applied was equivalent to 7.5 g per 10 ares. The test was conducted in triplicate for each chemical concentration group, and the weed inhibition rate (%) was determined 21 days after chemical application using the following formula (Math. 1).

[2] = test system: Echinochloa crus-galli; experiment: Test Example 3: herbicidal effect test by soil application in upland field; settings: 1 day after sowing, 120 g per 10 ares, 14 days after application
Method: (§2) Herbicidal Effect Test by Soil Application in Upland Field
(§3) Pots with an area of 36 cm^2 were filled with upland soil (alluvial loam), twenty seeds each of weeds of Digitaria ciliaris, Echinochloa crus-galli, Chenopodium album, and Amaranthus viridis were uniformly mixed with the top 1 cm layer of soil and the surface was lightly pressed down. One day after sowing, an emulsifiable concentrate prepared according to Formulation Example 5 using the compound shown below was diluted with water, and the diluted solution was sprayed onto the soil surface at a rate of 100 liters per 10 ares. The amount of the active ingredient to be applied was equivalent to 120 g per 10 ares. Fourteen days after chemical application, the herbicidal effect was evaluated according to the same criteria as in Test Example 1.

[3] = test system: Amaranthus viridis; experiment: as above; settings: 1 day after sowing, 120 g per 10 ares, 14 days after application
Method: as §2, §3

[4] = test system: Chenopodium album; experiment: as above; settings: 1 day after sowing, 120 g per 10 ares, 14 days after application
Method: as §2, §3

[5] = test system: Digitaria ciliaris; experiment: as above; settings: 1 day after sowing, 120 g per 10 ares, 14 days after application
Method: as §2, §3

[6] = test system: Echinochloa crus-galli var. formosensis; experiment: Test Example 2: herbicidal effect test by application during growth period of paddy rice; settings: 7 days after sowing, 120 g per 10 ares, 14 days after application
Method: as §1
(§4) Wagner pots with an area of 1/10,000 […] were filled with paddy soil, followed by addition of water and incorporation of chemical fertilizer (N:P:K=16:16:16), after which puddling was performed. After that, seeds of Echinochloa crus-galli var. formosensis, broad-leaved weeds (Lindemia pyxidaria, and Monochoria vaginalis), and Scirpus juncoides were sown at a depth of 0 cm to 1 cm, 30 seeds each. Immediately after sowing, the pots were flooded and a water depth of approximately 3 cm was maintained. Subsequent management was conducted in a glass greenhouse. Seven days after sowing, an emulsifiable concentrate prepared according to Formulation Example 5 using the compound shown below was diluted with water, and a specified amount of the diluted solution was applied by dropper. The amount of the active ingredient to be applied was equivalent to 120 g per 10 ares. The test was conducted in duplicate for each chemical concentration group, and the herbicidal effect was evaluated 14 days after chemical application using the same criteria as in Test Example 1.

[7] = test system: Scirpus juncoides; experiment: Test Example 5: herbicidal effect test by soil application in paddy rice; settings: 7.5 g per 10 ares, 14 days after application
Method: (§5) Herbicidal Effect Test by Soil Application in Paddy Rice
as §4, with “Immediately thereafter,” for “Seven days after sowing,”, “7.5” for “120”, “ares.” for “ares. The test was conducted in duplicate for each chemical concentration group, and the herbicidal effect was evaluated 14 days after chemical application using the same criteria as in Test Example 1.”
(§6) The present test was conducted in duplicate for each chemical concentration group, and the herbicidal effect was evaluated 14 days after chemical application using the same criteria as in Test Example 1.

[8] = test system: Echinochloa crus-galli var. formosensis; experiment: as above; settings: 7.5 g per 10 ares, 14 days after application
Method: as §5
as §4, with “Immediately thereafter,” for “Seven days after sowing,”, “7.5” for “120”, “ares.” for “ares. The test was conducted in duplicate for each chemical concentration group, and the herbicidal effect was evaluated 14 days after chemical application using the same criteria as in Test Example 1.”
as §6

[9] = test system: Echinochloa crus-galli; experiment: Test Example 7: herbicidal effect test by soil application in upland field; settings: 1 day after sowing, 7.5 g per 10 ares, 14 days after application
Method: as §2
as §3, with “7.5” for “120”

[10] = test system: Amaranthus viridis; experiment: as above; settings: 1 day after sowing, 7.5 g per 10 ares, 14 days after application
Method: as §2
as §3, with “7.5” for “120”

[11] = test system: Echinochloa crus-galli; experiment: Test Example 8: herbicidal effect test by stem and leaf treatment in upland field; settings: 7 days after sowing, 7.5 g per 10 ares, 14 days after application
Method: (§7) Herbicidal Effect Test by Stem and Leaf Treatment in Upland Field
as §3, with “Seven days” for “One day”, “7.5” for “120”

[12] = test system: Echinochloa crus-galli; experiment: Test Example 4: herbicidal effect test by stem and leaf treatment in upland field; settings: 7 days after sowing, 120 g per 10 ares, 14 days after application
Method: as §7
as §3, with “Seven days” for “One day”

[13] = test system: Digitaria ciliaris; experiment: as above; settings: 7 days after sowing, 120 g per 10 ares, 14 days after application
Method: as §7
as §3, with “Seven days” for “One day”

[14] = test system: Scirpus juncoides; experiment: Test Example 1: herbicidal effect test by soil application in paddy rice; settings: 120 g per 10 ares, 14 days after application
Method: as §5
as §4, with “(Lindernia pyxidaria” for “(Lindemia pyxidaria,”, “Immediately thereafter,” for “Seven days after sowing,”, “ares.” for “ares. The test was conducted in duplicate for each chemical concentration group, and the herbicidal effect was evaluated 14 days after chemical application using the same criteria as in Test Example 1.”
(§8) The present test was conducted in duplicate for each chemical concentration group, and the weed inhibition rate (%) was determined 14 days after chemical application using the following formula (Math. 1).

[15] = test system: Echinochloa crus-galli var. formosensis; experiment: as above; settings: 120 g per 10 ares, 14 days after application
Method: as §5
as §4, with “(Lindernia pyxidaria” for “(Lindemia pyxidaria,”, “Immediately thereafter,” for “Seven days after sowing,”, “ares.” for “ares. The test was conducted in duplicate for each chemical concentration group, and the herbicidal effect was evaluated 14 days after chemical application using the same criteria as in Test Example 1.”
as §8

Row | Structure (SMILES) | inhibition at 75 g/ha [1] [%] | weed inhibition rate [2] [%] | weed inhibition rate [3] [%] | weed inhibition rate [4] [%] | weed inhibition rate [5] [%] | weed inhibition rate [6] [%] | weed inhibition rate [7] [%] | weed inhibition rate [8] [%] | weed inhibition rate [9] [%] | weed inhibition rate [10] [%] | weed inhibition rate [11] [%] | weed inhibition rate [12] [%] | weed inhibition rate [13] [%] | weed inhibition rate [14] [%] | weed inhibition rate [15] [%]
1 | C=C1C(OCc2ccccc2C)C2(C)CCC1(C(C)C)O2 (stereo not drawn) | 20 | – | – | – | – | – | – | – | – | – | – | – | – | – | –
2 | CC(C)[C@]12C[C@@H](OCc3ccccc3C(F)(F)F)[C@](C)(CC1=O)O2 [2-29, (1R,4S5R)-1-isopropyl-4-methyl-5-((2-(trifluoromethyl)benzyl)oxy)-7-oxabicyclo[2.2.1]heptan-2-one] | – | ≥ 80 | ≥ 80 | ≥ 80 | ≥ 80 | ≥ 80 | ≥ 80 | ≥ 80 | ≥ 80 | ≥ 80 | ≥ 80 | ≥ 80 | ≥ 80 | ≥ 80 | ≥ 80
